One data set relates to MNV. Nature of the data set: MNV plaque reduction assay in cell culture. In kind it is cell-based, murine norovirus. The method, then: (§1) As mentioned above, the only robust cellular assay available for the evaluation of potential norovirus inhibitors is the closely related MNV assay. […] Consequently, 54 was further assessed to determine the IC50 value against MNV RdRp activity using an in vitro fluorescent assay. […] 54 was then assessed for cytotoxicity against RAW264.7 mouse macrophage cells using a cell viability assay. […] Using the plaque reduction assay, the inhibitory effects of 54 (0.5–50 µM) were examined against MNV plaque formation in cell culture. […] Compound solubility and its cell-membrane permeability properties could be further improved with structure-activity relationship enhancement of the 54 scaffold to facilitate cellular uptake, and therefore to increase antiviral efficacy. Work on this aspect is ongoing, and it will be reported in due course.
(§2) MNV-1 (CW1) culture assays were performed as previously described. Replication was examined using plaque assays[58],[64],[65]. Cytotoxicity was examined using a CellTitre Blue (Promega, Madison, WI, USA) viability assay as described previously.
For orientation: In a plaque reduction assay, fewer plaques than in the control indicate reduced infectivity or spread.

Another data set has as its target T1, Q414A norovirus RdRp (Norovirus GII.4 (Norwalk virus, human norovirus), UniProt K4L8Z7, Q1603A).
T1 sequence (K4L8Z7 1190-1699 Q1603A): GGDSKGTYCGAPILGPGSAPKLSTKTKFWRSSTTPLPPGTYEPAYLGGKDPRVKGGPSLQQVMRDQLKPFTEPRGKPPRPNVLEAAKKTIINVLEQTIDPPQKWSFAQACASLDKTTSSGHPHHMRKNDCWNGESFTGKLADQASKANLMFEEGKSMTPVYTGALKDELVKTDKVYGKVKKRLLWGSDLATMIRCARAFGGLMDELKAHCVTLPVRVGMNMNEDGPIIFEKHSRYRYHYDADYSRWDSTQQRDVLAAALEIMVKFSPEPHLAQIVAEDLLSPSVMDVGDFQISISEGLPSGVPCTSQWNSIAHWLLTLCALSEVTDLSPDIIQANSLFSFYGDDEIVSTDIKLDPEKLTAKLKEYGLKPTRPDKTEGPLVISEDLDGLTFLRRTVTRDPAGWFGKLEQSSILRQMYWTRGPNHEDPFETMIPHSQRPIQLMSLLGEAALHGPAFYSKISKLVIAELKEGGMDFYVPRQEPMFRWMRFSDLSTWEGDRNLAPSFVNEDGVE
Nature of the data set: Fluorescent RdRp assay, Q414A mutant RdRp. Format: biochemical. The conditions noted are these: 0.1–100 µM. From the text:
(§3) Given the evidence of 54 being a site-B binding NNI, residues Q414 and R419 were mutated to alanine. These residues were previously shown by our research group and others to be critical for human norovirus RdRp site-B binding NNIs, and can create resistance to the drug through their mutagenesis[16],[17],[39]. After the mutant RdRps’ transcriptional activity was confirmed in a fluorescent RdRp assay (Q414A: 54%, R419A: 34% of wild-type activity, respectively), dose-response curves for 54 (0.1–100 µM) were produced to compare the IC50 values between the wild-type RdRp and the two mutant RdRps, Q414A and R419A (Fig. 13B). […]
(§4) Fluorescent RdRp activity assays were carried out as previously described[14],[62]. Briefly, RdRp activity was quantified by monitoring the formation of double-stranded RNA (dsRNA) from a single stranded homopolymeric template, poly(C) (Sigma Aldrich, St Louis, MO, USA), using the fluorescent dye PicoGreen (Life Technologies, Carlsbad, CA, USA). […] RdRps were incubated for 10 mins at 30 °C in the presence of the test compounds or the compound vehicle DMSO (0.5% vol/vol) before addition into the reaction mixture, which was then allowed to run 15 min at 30 °C then terminated with 10 mM EDTA, followed by PicoGreen staining and dsRNA quantitation. […] Antagonism was calculated using Compusyn software V1.0[59]. […]

Data set [1] is described as follows: CellTitre Blue cell viability (cytotoxicity) assay. Format: cell-based. The conditions noted are these: mouse, RAW264.7 mouse macrophage cells, 0.5–100 µM, read-out: CC50 (half maximal cytotoxic concentration). The method, then:
as §1, §2

The next data set addresses T2, R419A norovirus RdRp (Norovirus GII.4 (Norwalk virus, human norovirus), UniProt K4L8Z7, R1608A).
T2 sequence (K4L8Z7 1190-1699 R1608A): T1 sequence (K4L8Z7 1190-1699 Q1603A)
As to the kind of experiment: Fluorescent RdRp assay, R419A mutant RdRp. In kind it is biochemical. The conditions noted are these: 0.1–100 µM.
Excerpt: as §3, §4

The target of another data set is T3, MNV RdRp (Norovirus, UniProt Q80J95).
T3 construct: made in house
As to the kind of experiment: Fluorescent RdRp activity assay, MNV RdRp. The following applies: 0.1–100 µM; read-out: IC50 against MNV RdRp. In kind it is biochemical, murine norovirus. From the text: The antiviral activity of the four compounds (11, 13, 42a and 54) were examined for inhibition of RNA polymerases from other viruses spanning three genera of the Caliciviridae family, including Norovirus (human norovirus and MNV), Lagovirus (rabbit haemorrhagic disease virus [RHDV]) and Sapovirus (human sapovirus). […] The protein sequence of the examined calicivirus polymerases has an identity range between 30.2–61.4%, and therefore the broad-spectrum activity of these compounds could be attributed to a common, highly-conserved binding pocket across the RdRps, as has been previously reported with broad-spectrum activity of other site-B binding NNIs[16]. Moreover, the ability of each compound to inhibit the different RdRps in a similar range could be further confirmation of targeting a well-conserved binding site of the Caliciviridae family.
Recombinant calicivirus RdRps (GenBank accession numbers) norovirus GII.Pe/GII.4 Sydney 2012 (KT239579), MNV GV CW1 (DQ285629), RHDV Czech V351 (KF594473.1), and SaV GI.1 Mc114 (AY237422) were expressed and purified as described previously[60],[61]. […]
Fluorescent RdRp activity assays were carried out as previously described[14],[62]. Briefly, RdRp activity was quantified by monitoring the formation of double-stranded RNA (dsRNA) from a single stranded homopolymeric template, poly(C) (Sigma Aldrich, St Louis, MO, USA), using the fluorescent dye PicoGreen (Life Technologies, Carlsbad, CA, USA). […] RdRps were incubated for 10 mins at 30 °C in the presence of the test compounds or the compound vehicle DMSO (0.5% vol/vol) before addition into the reaction mixture, which was then allowed to run 15 min at 30 °C then terminated with 10 mM EDTA, followed by PicoGreen staining and dsRNA quantitation. […] In cases where fluorescent enhancement was recorded for a compound instead of inhibition, a secondary gel-based polymerase activity assay was used as a counter-screen as described below, to exclude the possibility of RdRp activity enhancement (Supplementary Fig. S1). […] Antagonism was calculated using Compusyn software V1.0[59]. […]

One may read the EC50 as the concentration at which the effect is half-maximal. The term IC50 denotes the point on the concentration scale where inhibition reaches its midpoint.

For the molecule `O=C1NN(c2ccccc2)C(=O)/C1=C/c1ccc(-c2ccc(S(=O)(=O)Nc3ccccc3)cc2)o1` [Compound 54], in the data set on MNV (50 µM, RAW264.7 cells), the “cytotoxicity seen in plaque assay” value is reported as “RAW264.7 cells thinning”. Also, the 50% effective concentration (EC50) in the data set with MNV (0.5–50 µM, read-out: EC50 against MNV in cell culture (plaque reduction)) was greater than 50 µM. Also, in the data set on MNV (up to 25 µM), the “effect on plaque numbers” value is listed as “no appreciable effect”. Moreover, the results for the IC50 against Q414A norovirus RdRp, against R419A norovirus RdRp and on MNV RdRp were 7.8 µM, 10.2 µM and 12.1 µM, respectively. In data set [1], the CC50 is 62.8 µM.

The values are drawn from article PMC5841303, “In silico screening for human norovirus antivirals reveals a novel non-nucleoside inhibitor of the viral polymerase” (Scientific Reports, 2018).
